Paper PMC6385203, “Mutations in the palm domain disrupt modulation of acid-sensing ion channel 1a currents by neuropeptides” (Scientific Reports, 2019)
Peptide text beside a SMILES is read from it.

Molecular target: T1, ASIC1a F302A (Homo sapiens, UniProt P78348, F302A)
T1 construct: expressed in transfected cells; host or cells: Xenopus laevis oocytes injected with cRNA
T1 sequence (P78348 1-528 F302A): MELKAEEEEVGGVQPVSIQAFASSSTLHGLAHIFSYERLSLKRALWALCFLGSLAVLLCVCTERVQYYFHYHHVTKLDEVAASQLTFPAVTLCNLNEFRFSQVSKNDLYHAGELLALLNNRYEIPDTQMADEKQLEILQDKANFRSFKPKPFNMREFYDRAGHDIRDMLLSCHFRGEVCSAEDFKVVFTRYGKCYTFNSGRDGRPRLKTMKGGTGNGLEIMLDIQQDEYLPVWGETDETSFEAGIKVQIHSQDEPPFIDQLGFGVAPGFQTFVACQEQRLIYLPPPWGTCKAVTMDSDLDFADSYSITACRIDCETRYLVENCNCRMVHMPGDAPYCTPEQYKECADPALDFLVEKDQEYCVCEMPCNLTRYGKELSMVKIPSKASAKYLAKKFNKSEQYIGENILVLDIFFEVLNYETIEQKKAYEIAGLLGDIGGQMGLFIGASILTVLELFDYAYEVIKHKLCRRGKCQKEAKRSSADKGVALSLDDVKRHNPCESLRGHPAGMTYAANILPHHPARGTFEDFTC
Assay: Isust/Ipeak, TEVC in Xenopus oocytes
Format: cell-based
Details: pH5, n = 8–10, mean ± SEM, read-out: EC50 of FRRFa-mediated sustained current induction
Source text: To scan the pocket and predicted entrance area with mutagenesis, we chose the residues with a potential to form hydrophobic (Ile312, Val187), aromatic (Phe 257, Phe301, Phe302) or electrostatic (Glu254, Asp303, Ser199, Asp253, Glu315) interactions with the peptide. For this analysis, we used mutation to Ala, and complemented the scan with mutation to Cys and subsequent chemical modification only for a selected residue. […] Phe302 is part of a loop connecting palm and thumb domains in the close neighbourhood of the thumb base. The observed increased Isust/Ipeak ratio of F302A (Fig. 4b,e) could simply be due to a better accessibility of the cavity of the putative RFa binding site in the thumb base, because Phe302 has a larger side chain than has Ala to which it was mutated. To test this hypothesis, we mutated Phe302 to Cys and exposed the mutant to the sulfhydryl reagent trimethylammonium-methyl methanethiosulfonate ([…]; 1 mM during 3 min) before the exposure to FRRFa. […]
Electrophysiological measurements were performed 1–2 days after cRNA injection. Ion currents were recorded using two-electrode voltage-clamp at a holding potential of −60 mV with a Dagan TEV-200 amplifier (Minneapolis, MN). […] The amplitude of the sustained current was measured in the last two seconds of the pH5 perfusion. […]

N=C(N)NCCC[C@H](NC(=O)[C@H](CCCNC(=N)N)NC(=O)[C@@H](N)Cc1ccccc1)C(=O)N[C@@H](Cc1ccccc1)C(N)=O [FRRFa, Phe-Arg-Arg-Phe-amide] (H-FRRF-NH2)
EC50: 11 ± 2 µM
